# ChEMBL document CHEMBL2062379, “Cleavage mechanism and anti-tumor activity of 3,6-epidioxy-1,10-bisaboladiene isolated from edible wild plants” (Bioorg Med Chem, 2012)
# Activity calls are given as the source filed them. The rule behind the calls is not given here.
# Tests used:
# [1] = tested on: HL-60; experiment: Induction of apoptosis in human HL60 cells assessed as caspase 8 activation at 20 uM after 3 hrs by spectrophotometric analysis; format: functional, cell-based
# [2] = tested on: NCI-H522; experiment: Growth inhibition of human NCI-H522 cells; format: functional
# [3] = tested on: SK-OV-3; experiment: Growth inhibition of human SKOV3 cells; format: functional
# [4] = tested on: HL-60; experiment: Cytotoxicity against human HL60 cells after 48 hrs by MTT assay in presence of DFOM; format: functional, cell-based; conditions: HL-60, 48 h
# [5] = tested on: SF-268; experiment: Growth inhibition of human SF268 cells; format: functional
# [6] = Growth inhibition of human RXF631L cells; format: functional; conditions: RXF 631
# [7] = tested on: HL-60; experiment: Induction of apoptosis in human HL60 cells assessed as DNA fragmentation after 24 hrs by Hoechst staining-based microscopic analysis in presence of 100 uM free radical scavenger vitamin E; format: functional, cell-based
# [8] = tested on: OVCAR-8; experiment: Growth inhibition of human OVCAR8 cells; format: functional
# [9] = tested on: OVCAR-5; experiment: Growth inhibition of human OVCAR5 cells; format: functional
# [10] = tested on: MDA-MB-231; experiment: Growth inhibition of human MDA-MB-231 cells; format: functional
# [11] = tested on: OVCAR-4; experiment: Growth inhibition of human OVCAR4 cells; format: functional
# [12] = tested on: HL-60; experiment: Induction of ROS generation in human HL60 cells at 10 uM after 3 hrs by spectrofluorometric analysis; format: functional, cell-based
# [13] = tested on: HL-60; experiment: Cytotoxicity against human HL60 cells assessed as cell viability at 2 uM by MTT assay; format: functional; conditions: read-out: Activity
# [14] = tested on: HL-60; experiment: Induction of apoptosis in human HL60 cells assessed as DNA fragmentation after 24 hrs by Hoechst staining-based microscopic analysis in presence of 50 uM superoxide scavenger allopurinol; format: functional, cell-based
# [15] = tested on: A549; experiment: Growth inhibition of human A549 cells; format: functional
# [16] = tested on: NCI-H23; experiment: Growth inhibition of human NCI-H23 cells; format: functional
# [17] = Induction of ROS generation at 10 uM after 3 hrs by spectrofluorometric analysis in presence of FeSO4; format: physicochemical
# [18] = tested on: KM12; experiment: Growth inhibition of human KM12 cells; format: functional
# [19] = tested on: PC-3; experiment: Growth inhibition of human PC3 cells; format: functional
# [20] = Growth inhibition of human HBC5 cells; format: functional
# [21] = Growth inhibition of human HBC4 cells; format: functional
# [22] = Growth inhibition of human MKN1 cells; format: functional; conditions: MKN-1
# [23] = tested on: Saccharomyces cerevisiae; experiment: Growth restoration activity in cdc2-1 rad9-deficient Saccharomyces cerevisiae assessed as growth zone at 2 ug/disc incubated at 37 degC for 6 hrs and 28 degC for 2 days; format: functional
# [24] = tested on: Saccharomyces cerevisiae; experiment: Growth restoration activity in cdc2-1 rad9-deficient Saccharomyces cerevisiae assessed as growth zone incubated at 37 degC for 6 hrs and 28 degC for 2 days; format: functional, organism-based
# [25] = tested on: HCT-116; experiment: Growth inhibition of human HCT116 cells; format: functional
# [26] = tested on: HL-60; experiment: Induction of apoptosis in human HL60 cells assessed as DNA fragmentation after 24 hrs by Hoechst staining-based microscopic analysis in presence of 10 mM hydrogen peroxide scavenger NAC; format: functional, cell-based
# [27] = tested on: NCI-H460; experiment: Growth inhibition of human NCI-H460 cells; format: functional
# [28] = tested on: St-4; experiment: Growth inhibition of human St-4 cells; format: functional
# [29] = tested on: Saccharomyces cerevisiae; experiment: Growth restoration activity in cdc2-1 rad9-deficient Saccharomyces cerevisiae assessed as growth zone incubated at 37 degC for 6 hrs and 28 degC for 2 days relative to mycophenolic acid; format: functional
# [30] = biological target: MAP kinase p38 (Homo sapiens) (UniProt O15264+Q15759+Q16539+P53778); experiment: Induction of p38 MAPK phosphorylation at T180/Y182 in human HL60 cells at 10 uM after 3 hrs by Western blot analysis; format: cell-based; conditions: HL-60
# [31] = tested on: SNB-78; experiment: Growth inhibition of human SNB78 cells; format: functional
# [32] = tested on: HL-60; experiment: Induction of apoptosis in human HL60 cells assessed as DNA fragmentation after 24 hrs by Hoechst staining-based microscopic analysis preincubated with 10 uM ERK inhibitor PD98059; format: functional, cell-based
# [33] = tested on: Saccharomyces cerevisiae; experiment: Growth restoration activity in cdc2-1 rad9-deficient Saccharomyces cerevisiae assessed as growth zone at 1 ug/disc incubated at 37 degC for 6 hrs and 28 degC for 2 days; format: functional
# [34] = tested on: DU-145; experiment: Growth inhibition of human DU145 cells; format: functional
# [35] = tested on: MKN-7; experiment: Growth inhibition of human MKN7 cells; format: functional
# [36] = tested on: SF-295; experiment: Growth inhibition of human SF295 cells; format: functional
# [37] = tested on: HCT-15; experiment: Growth inhibition of human HCT15 cells; format: functional
# [38] = tested on: HL-60; experiment: Induction of apoptosis in human HL60 cells assessed as DNA fragmentation after 24 hrs by Hoechst staining-based microscopic analysis preincubated with 20 uM p38 MAPK inhibitor SB203580; format: functional, cell-based
# [39] = tested on: HL-60; experiment: Induction of apoptosis in human HL60 cells assessed as caspase 3/7 activation at 20 uM after 3 hrs by spectrophotometric analysis; format: functional, cell-based
# [40] = tested on: HL-60; experiment: Induction of apoptosis in human HL60 cells assessed as caspase 9 activation at 20 uM after 3 hrs by spectrophotometric analysis; format: functional, cell-based
# [41] = tested on: HCC 2998; experiment: Growth inhibition of human HCC2998 cells; format: functional
# [42] = tested on: K562; experiment: Cytotoxicity against human K562 cells after 4 days by MTT assay; format: functional, cell-based; conditions: K562, 96 h
# [43] = tested on: Mus musculus; experiment: Toxicity in nude mouse bearing human LOXIMVI cells assessed as change in body weight at 25 mg/kg, iv administered on day 1, 6 and 11; format: organism-based, LOX IMVI; parameters: dose 25 mg/kg, route intravenous; conditions: in vivo
# [44] = tested on: Saccharomyces cerevisiae; experiment: Growth restoration activity in cdc2-1 rad9-deficient Saccharomyces cerevisiae assessed as growth zone at 0.5 ug/disc incubated at 37 degC for 6 hrs and 28 degC for 2 days; format: functional
# [45] = tested on: U-251; experiment: Growth inhibition of human U251 cells; format: functional
# [46] = tested on: HL-60; experiment: Induction of apoptosis in human HL60 cells assessed as caspase 3/7 activation after 1 to 6 hrs by spectrophotometric analysis; format: functional, cell-based
# [47] = tested on: HL-60; experiment: Induction of apoptosis in human HL60 cells assessed as condensed and fragmented nuclie at 10.6 uM after 18 hrs by Hoechst staining-based microscopic analysis relative to control; format: functional, cell-based
# [48] = tested on: HL-60; experiment: Cytotoxicity against human HL60 cells after 48 hrs by MTT assay in absence of DFOM; format: functional, cell-based; conditions: HL-60, 48 h
# [49] = tested on: HL-60; experiment: Induction of apoptosis in human HL60 cells assessed as caspase 8 activation after 1 to 6 hrs by spectrophotometric analysis; format: functional, cell-based
# [50] = tested on: SF-539; experiment: Growth inhibition of human SF539 cells; format: functional
# [51] = tested on: HL-60; experiment: Cytotoxicity against human HL60 cells assessed as cell viability at 2 uM by MTT assay in presence of 20 uM Fe2(SO4)3; format: functional
# [52] = tested on: LOX IMVI; experiment: Antitumor activity against human LOXIMVI cells xenografted in nude mouse assessed as decrease in tumor volume at 25 mg/kg, iv administered on day 1, 6 and 11 post tumor inoculation measured on day 21; format: functional; parameters: scale not given: the % may be the effect or the level left
# [53] = tested on: DMS-273; experiment: Growth inhibition of human DMS273 cells; format: functional
# [54] = tested on: MCF7; experiment: Growth inhibition of human MCF7 cells; format: functional
# [55] = tested on: MKN-74; experiment: Growth inhibition of human MKN74 cells; format: functional
# [56] = Growth inhibition of human BSY1 cells; format: functional; conditions: BSY-1
structure (smiles),measurement,setting,value
CC(C)=CCCC(C)C12C=CC(C)(CC1)OO2 (stereo unspecified),Activity,[1],Active
same,GI50,[2],200 nM
same,GI50,[3],7940 nM
same,IC50,[4],35500 nM
same,GI50,[5],7080 nM
same,GI50,[6],2510 nM
same,Activity,[7],inactive
same,GI50,[8],12000 nM
same,GI50,[9],12000 nM
same,GI50,[10],11700 nM
same,GI50,[11],1820 nM
same,Activity,[12],inactive
same,viability at 2 µM,[13],77.8%
same,Activity,[14],Active
same,GI50,[15],1550 nM
same,GI50,[16],1700 nM
same,Activity,[17],Active
same,GI50,[18],1860 nM
same,GI50,[19],1820 nM
same,GI50,[20],191 nM
same,GI50,[21],1120 nM
same,GI50,[22],1740 nM
same,Activity,[23],24.1 mm
same,Activity,[24],Dose-dependent effect
same,GI50,[25],3720 nM
same,Activity,[26],Active
same,GI50,[27],832 nM
same,GI50,[28],5370 nM
same,fold change (FC),[29],50
same,Activity,[30],Active
same,GI50,[31],1550 nM
same,Activity,[32],Active
same,Activity,[33],19 mm
same,GI50,[34],2630 nM
same,GI50,[35],3630 nM
same,GI50,[36],1660 nM
same,GI50,[37],4900 nM
same,Activity,[38],inactive
same,Activity,[39],Active
same,Activity,[40],Active
same,GI50,[41],4680 nM
same,IC50,[42],9100 nM
same,Activity,[43],Non-toxic
same,Activity,[44],0 mm
same,GI50,[45],5010 nM
same,Activity,[46],Dose-dependent effect
same,Activity,[47],Active
same,IC50,[48],3700 nM
same,Activity,[49],Dose-dependent effect
same,GI50,[50],2570 nM
same,Activity,[51],34.9%
same,Activity,[52],26.9%
same,GI50,[53],1150 nM
same,GI50,[54],2090 nM
same,GI50,[55],1170 nM
same,GI50,[56],2950 nM
